# Experiments:
# [1] = test system: Streptomyces fradiae ATCC 31664; experiment: Antibiotic sensitivity, sensitivity discs on seeded agar plates; assay type: cell-based; conditions: discs: chloramphenicol, cephaloridine, tetracycline, vancomycin 30 μg, erythromycin 15 μg, lincomycin 2 μg, polymyxin B 300 units, streptomycin 10 μg; further: key: -: resistance (no zones of inhibition); +: sensitivity (zones of inhibition); trace of sensitivity
# Excerpt: (§1) ^a Determined by using sensitivity discs padded onto seededagar
# [2] = test system: Streptomyces fradiae E2724.1; experiment: as above; assay type: cell-based; conditions: discs: chloramphenicol, cephaloridine, tetracycline, vancomycin 30 μg, erythromycin 15 μg, lincomycin 2 μg, polymyxin B 300 units, streptomycin 10 μg; further: key: -: resistance (no zones of inhibition); +: sensitivity (zones of inhibition); trace of sensitivity
# Excerpt: as §1
# [3] = Solubility; assay type: physicochemical
# [4] = test system: Streptococcus pyogenes C203; experiment: Experimental infection in mice, ED50; assay type: in vivo; conditions: sc, subcutaneous, two doses, bacterial challenge (X LD50) = 133, read-out: Subcutaneous ED50 (effective dose to protect 50% of the test animals)
# Protocol: (§2) The DOMM compounds have shown in vivo antimicrobial activity against experimental bacterial infections. When two doses of test compound were administered to mice in experimental infections, the activity observed was measured as an ED50 value [effective dose in mg/kg to protect 50% of the test animals: see Warren Wick, et al., J. Bacteriol. 81, 233-235 (1961)].
# [5] = test system: Staphylococcus aureus 3055; experiment: Experimental infection in mice, ED50; assay type: in vivo; conditions: sc, subcutaneous, two doses, bacterial challenge (X LD50) = 139, read-out: Subcutaneous ED50 (effective dose to protect 50% of the test animals)
# Protocol: as §2
# [6] = test system: Streptococcus pneumoniae Park I; experiment: Experimental infection in mice, ED50; assay type: in vivo; conditions: sc, subcutaneous, two doses, bacterial challenge (X LD50) = 41.2, read-out: Subcutaneous ED50 (effective dose to protect 50% of the test animals)
# Protocol: as §2
# [7] = test system: Streptococcus pyogenes C203; experiment: Standard agar-dilution MIC assay; assay type: cell-based; conditions: DOMM free base
# Excerpt: (§3) Table 8 summarizes the minimal inhibitory concentrations (MIC), as measured by standard agar-dilution assays, at which DOMM (free base) inhibits certain bacteria.
# [8] = test system: Mycoplasma hyopneumoniae; experiment: Standard agar-dilution MIC assay; assay type: cell-based; conditions: Mesomycoplasma hyopneumoniae, DOMM free base
# Excerpt: as §3
# [9] = test system: Mycoplasma gallisepticum; experiment: Standard agar-dilution MIC assay; assay type: cell-based; conditions: Mycoplasmoides gallisepticum, DOMM free base
# Excerpt: as §3
# [10] = test system: Streptococcus pneumoniae Park I; experiment: Standard agar-dilution MIC assay; assay type: cell-based; conditions: DOMM free base
# Excerpt: as §3
# [11] = test system: Pasteurella hemolytica; experiment: Standard agar-dilution MIC assay; assay type: cell-based; conditions: DOMM free base
# Excerpt: as §3
# [12] = test system: Pasteurella multocida; experiment: Standard agar-dilution MIC assay; assay type: cell-based; conditions: DOMM free base
# Excerpt: as §3
# [13] = test system: Mycoplasma hyorhinis; experiment: Standard agar-dilution MIC assay; assay type: cell-based; conditions: DOMM free base
# Excerpt: as §3
# [14] = test system: Streptococcus sp. (Group D) 282; experiment: Standard agar-dilution MIC assay; assay type: cell-based; conditions: DOMM free base
# Excerpt: as §3
# [15] = test system: pathogenic bacteria, especially gram-positive bacteria and Mycoplasma species; experiment: Inhibition of growth of pathogenic organisms (general statement); assay type: cell-based
# Excerpt: as §3
# [16] = Electrometric titration (pKa); assay type: physicochemical; conditions: 66% aqueous dimethylformamide
# Excerpt: Electrometric titration of DOMM in 66% aqueous dimethylformamide indicates the presence of a titratable group with a pKa value of about 7.14.
molecule,measurement,setting,value
O=C(Cc1cccs1)N[C@@H]1C(=O)N2C(C(=O)[O-])=C(C[n+]3ccccc3)CS[C@H]12 [Cephaloridine],Antibiotic sensitivity,[1],+
same,Antibiotic sensitivity,[2],+
O=C(N[C@H](CO)[C@H](O)c1ccc([N+](=O)[O-])cc1)C(Cl)Cl [Chloramphenicol],Antibiotic sensitivity,[1],+
same,Antibiotic sensitivity,[2],+
"CCC1OC(=O)CC(O)C(C)C(OC2OC(C)C(OC3CC(C)(O)C(O)C(C)O3)C(N(C)C)C2O)C(CC=O)CC(C)C(=O)C=CC(C)=CC1COC1OC(C)C(O)C(O)C1O (centres unmarked) [DOMM, 2'""-O-demethylmacrocin]",solubility in most polar organic solvents,"[3]; acetone, methanol, ethanol, chloroform, dimethylformamide and dimethyl sulfoxide",soluble
same,solubility in water,[3]; water,soluble
same,ED50,[4],1.1 mg/kg
same,ED50,[5],3.8 mg/kg
same,ED50,[6],37.5 mg/kg
same,MIC,[7],0.25 µg/mL
same,MIC,[8],0.78 µg/mL
same,MIC,[9],0.78 µg/mL
same,MIC,[10],0.25 µg/mL
same,MIC,[11],50 µg/mL
same,MIC,[12],12.5 µg/mL
same,MIC,[13],3.12 µg/mL
same,MIC,[14],4 µg/mL
same,growth inhibition / antibacterial activity (in words),[15],especially active against grampositive microorganisms and Mycoplasma species
same,pKa value,[16],about 7.14
CCC[C@@H]1C[C@@H](C(=O)N[C@@H]([C@H]2O[C@H](SC)[C@H](O)[C@@H](O)[C@H]2O)[C@@H](C)O)N(C)C1 [Lincomycin],Antibiotic sensitivity,[1],-
same,Antibiotic sensitivity,[2],-
[H]/N=C(/N)N[C@H]1[C@H](O)[C@@H](O)[C@H](O[C@@H]2O[C@@H](C)[C@](O)(C=O)[C@H]2O[C@@H]2O[C@@H](CO)[C@H](O)[C@@H](O)[C@@H]2NC)[C@@H](N/C(N)=N\[H])[C@@H]1O [Streptomycin],Antibiotic sensitivity,[1],+
same,Antibiotic sensitivity,[2],+
CN(C)C1C(=O)C(C(N)=O)=C(O)C2(O)C(=O)C3=C(O)c4c(O)cccc4C(C)(O)C3CC12 (centres unmarked) [Tetracycline],Antibiotic sensitivity,[1],+
same,Antibiotic sensitivity,[2],+
CN[C@H](CC(C)C)C(=O)N[C@H]1C(=O)N[C@@H](CC(N)=O)C(=O)N[C@H]2C(=O)N[C@H]3C(=O)N[C@H](C(=O)N[C@H](C(=O)O)c4cc(O)cc(O)c4-c4cc3ccc4O)[C@H](O)c3ccc(c(Cl)c3)Oc3cc2cc(c3O[C@@H]2O[C@H](CO)[C@@H](O)[C@H](O)[C@H]2O[C@H]2C[C@](C)(N)[C@H](O)[C@H](C)O2)Oc2ccc(cc2Cl)[C@H]1O [Vancomycin],Antibiotic sensitivity,[1],+
same,Antibiotic sensitivity,[2],+
"CCC1OC(=O)CC(O)C(C)C(OC2OC(C)C(OC3CC(C)(O)C(O)C(C)O3)C(N(C)C)C2O)C(CCO)CC(C)C(=O)C=CC(C)=CC1COC1OC(C)C(O)C(O)C1O (centres unmarked) [dihydro-DOMM, 20-dihydro-2'""-O-demethylmacrocin]",growth inhibition / antibacterial activity (in words),[15],especially active against grampositive microorganisms and Mycoplasma species
Polymyxin B,Antibiotic sensitivity,[1],+

# Reference: US4486584A, “Demethylmacrocin compounds and derivatives thereof” (Eli Lilly and Company, priority 1982, dated 1984)
